Legend:
[1] = test system: cell lines overproducing PKC; assay: Growth in agar of cell lines overproducing PKC (further screening of activators and inhibitors); type: cell-based, rat; settings: PKC-overproducing cell lines; known activators or inhibitor of PKC
Procedure: Cells were seeded at a density of 10^4/plate in a series of 60 mm plates, in 5 ml DMEM plus 10% CS. Twenty-four hours later, cells in triplicate plates were trypsinized and counted. This point was designated “day 0.” The remaining cultures were then grown in the respective medium (i.e. plus or minus 100 ng/ml TPA) with fresh medium changes twice per week. Cell counts per plate were then determined on triplicate plates during the remainder of the growth curve (FIG. 3). The results obtained were analyzed for exponential doubling time and saturation density (Table 2). To assess growth in soft agar (anchorage independence), 2×10^4 cells were suspended in 2 ml of 0.3% Bacto agar (Difco Laboratories, Detroit, Mich.) in DMEM containing 20% fetal calf serum (FCS) and overlayed above a layer of 5 ml of 0.5% agar in the same medium, on 60 mm petri dishes. The cells were then overlaid with DMEM plus 20% FCS every 4 days. At the end of 30 days, colonies were stained with the vital stain 2-(p-iodophenyl)-3-(p-nitrophenyl)-5-phenyltetrazolinium chloride hydrate (INT) (Sigma Chemical Co., St. Louis, Mo.) for 48 hours at 37° C., in an incubator with 5% CO2 (Schaeffer and Friend, 1976), and the number of colonies counted under low power on an inverted phase microscope. The data are expressed as “cloning efficiency”, i.e. number of colonies greater than 0.05 mm per plate X 100 divided by the number of cells originally seeded per plate.
Additional compounds tested included the tumor promoters teleocidin, aplysiatoxin, and mezerein, all of which are known activators of PKC (O'Brian, et al., CSH, 1985).
Inhibition of the growth of the R6-PKC3 cells in agar in the presence of tamoxifen provided critical evidence that tamoxifen could inhibit PKC-mediated stimulation of cellular growth.

[2] = test system: CHO/HIRC cells overproducing the human insulin receptor; assay: Morphologic and growth control effects of insulin on CHO/HIRC test cells; type: cell-based, Chinese Hamster; settings: 400 nM insulin
Text: (§1) These cell lines were generated using approaches analogous to those previously described for the PKC-overproducing cell lines. However, in these HIR studies we utilized a different expression vector, distinct cell lines, and an alternative method of gene transfer (direct transfection as opposed to virus-mediated transduction as used in the PKC experiments previously described). Briefly, CHO cells were co-transfected with the transfer vector pSVEneo (containing the neomycin resistance gene) and the expression vector pCVSVHIRc as previously described (White et al., 1988). After twenty four hours, the transfected cells were placed into 800 ug/ml G418 to select resistant cells. Approximately two weeks later, G418-resistant clones were isolated and subcloned. Clonal cell lines which express high levels of surface insulin receptors were selected by fluorescence-activated cell sorting. One such line (CHO/HIRC), which stably overproduced approximately 80,000 insulin receptors per CHO cell, was utilized in these experiments. A control CHO cell line (CHO/NEO), harboring only the pSVEneo transfer vector, were generated in analogous fashion. Detailed preliminary characterizations of this cell line have been described (White et al., 1988).
We then tested the ability of the CHO/HIRC and CHO/NEO cells to respond to the following insulin treatment protocol. Control cells, hereinafter termed CHO/NEO (which harbor pSVEneo alone), and the Test cells, termed CHO/HIRC (which stably overproduced about 80,000 insulin receptors per cell), were incubated in the presence and absence of insulin. Control (CHO/NEO) and Test (CHO/HIRC) cell lines were exposed to 400 nM of insulin and the resultant morphologic changes were observed and photographed using a Bausch and Lomb BL-200 phase-contrast microscope with a Nikon FM-200 camera attached.

[3] = test system: CHO/NEO control cells; assay: Morphologic and growth control effects of insulin on CHO/NEO control cells; type: cell-based, Chinese Hamster; settings: 400 nM insulin, 48 hours after treatment
Text: as §1
We then tested the ability of the CHO/HIRC and CHO/NEO cells to respond to the following insulin treatment protocol. […]

Molecule	modulation of the growth of the cells [1]	morphologic changes ([2]; 24 hours after exposure)	adherence to the culture plate ([2]; 48 hours after treatment)	morphologic changes ([2]; after 18 hours)	adherence to the culture plate [3]
C=C(C)[C@@]12O[C@@]3(c4ccccc4)O[C@@H]1[C@@H]1[C@@H]4O[C@]4(CO)[C@@H](O)[C@]4(O)C(=O)C(C)=C[C@H]4[C@@]1(O3)[C@H](C)[C@H]2OC(=O)/C=C/C=C/c1ccccc1 [mezerein]	modulated the growth of the cells in the expected manner	–	–	–	–
teleocidin	modulated the growth of the cells in the expected manner	–	–	–	–
CO[C@@H](CC[C@H](C)[C@H]1O[C@@]23C[C@H](OC(=O)C[C@H]([C@@H](C)O)OC(=O)C[C@](O)(O2)[C@H](C)CC3(C)C)[C@@H]1C)c1cc(O)ccc1Br [aplysiatoxin]	modulated the growth of the cells in the expected manner	–	–	–	–
insulin	–	further pronounced	virtually all of the test cells had completely detached from the plate	profound morphologic changes	still largely intact
